Patent US9597274B2, “Peptides and their use in the treatment of skin” (Avon Products, Inc., priority 2015, dated 2017)

Assays:
[1] = system: Human dermal fibroblast cells; experiment: Pro-collagen I secretion into the media (HTRF human pro-collagen I kit) after 48 h peptide treatment; type: cell-based; settings: percent change relative to vehicle control
Experimental: (§1) Human dermal fibroblast cells were grown in a 96 well plate in DMEM media (available from Corning, N.Y.) supplemented with 10% Fetal Bovine Serum (FBS) and L-glutamine (0.07×10^5 cells/plate). After reaching about 75% confluence, cells were transferred into DMEM media without FBS and incubated for 4-6 hours. Next, cells were treated with a peptide at 0.00001%, 0.0001%, 0.001% final concentration in DMEM media without FBS for 48 h. After treatment, the media were collected and cell viability was measured using MTT. The amount of collagen secreted was tested in the media using HTRF human pro-collagen I kit (available from Cisbio Inc., Bedford, Mass.). The amount of secreted Hyaluronic Acid (HA) was tested in the media using HA Elisa kit (available from Corgenix, Broomfield, Colo.).
(§2) The results are summarized in Table 12 below as percent change of pro-collagen I and/or HA production relative to vehicle control (peptide concentrations provided in parentheses) using the following keys: […]

[2] = system: Human dermal fibroblast cells; experiment: Secreted hyaluronic acid (HA) in the media (HA Elisa kit) after 48 h peptide treatment; type: cell-based; settings: percent change relative to vehicle control
Experimental: as §1, §2

[3] = peptide tested at 0.00001%, 0.0001%, 0.001%, concentration not given

| Substance | Increase in Pro-Collagen I Production [1, 3] | Increase in HA Production [2, 3] | Increase in HA Production ([2]; peptide concentration 0.0001%) | Increase in Pro-Collagen I Production ([1]; peptide concentration 0.001%) | Increase in HA Production ([2]; peptide concentration 0.001%) |
| --- | --- | --- | --- | --- | --- |
| QPED (listed as Homo sapiens) | 0 (0: <10%) | 0 (0: <20%) |  |  |  |
| GDALQPE (listed as Homo sapiens) | 0 (0: <10%) | 0 (0: <20%) |  |  |  |
| LENTKRS (listed as Homo sapiens) | 0 (0: <10%) | 0 (0: <20%) |  |  |  |
| MVV (listed as Homo sapiens) | 0 (0: <10%) |  | +(0.0001%) (+: 20-50%) |  |  |
| QILSKLRL (listed as Homo sapiens) |  |  |  | +(0.001%) (+: 10-30%) |  |
| LRLK (listed as Homo sapiens) | 0 (0: <10%) |  |  |  | +(0.001%) (+: 20-50%) |
